The source of these data is patent publication US20060247250A1 (TargeGen, Inc., priority 2005, published 2006).

Molecules are shown by their SMILES.

Common to all, as to type: biochemical
For one assay, the target named is T1, human Yes (Homo sapiens, UniProt P07947).
T1 construct: purchased Panvera/Invitrogen
The assay can be described thus: Yes kinase inhibition, luciferase-based residual ATP (KinaseGlo). The conditions noted are these: recombinant human Yes, ATP 3 μM, PTK2 substrate, 90 minutes at room temperature. On the procedure: (§1) The ability of compounds of the present invention to inhibit the activity of three groups of kinases was tested. Kinases tested included the src family (primarily src and yes), the angiogenic growth factors receptors (FGFR1, PDGFRb and VEGFR2) and the ephrin, EphB4. All kinase reactions were conducted in 96-well plates with a final reaction volume of 50 ul.
Recombinant human c-Src or Yes (28 ng/well, Panvera/Invitrogen, Madison Wis.), ATP (3 μM), a tyrosine kinase substrate (PTK2, 250 μM, Promega Corp., Madison Wis.), and test agents (at concentrations ranging from about 1 nM/l to about 100 μM/1), in the presence of Src kinase reaction buffer (Upstate USA, Lake Placid N.Y.). After reacting for about 90 minutes at room temperature, residual ATP was determined using a luciferase-based assay (KinaseGlo, Promega Corp.) as a measure of kinase activity. Data from four wells were then averaged and used to determine IC50 values for the test compounds (Prism software package, GraphPad Software, San Diego Calif.).
(In general: Kinase-Glo measures the ATP left after a reaction by luminescence.)

The next assay addresses T2, VEGFR2 (Homo sapiens, UniProt P35968).
T2 construct: purchased Cell Signaling/ProQinase
The assay can be described thus: VEGFR2 kinase assay, residual ATP luminescence. The conditions noted are these: VEGFR2, poly(glu4tyr), 1.5 uM ATP, 60 minutes at 37 C; read-out: Vegfr IC50. On the procedure: as §1
(§2) FGFR1 and VEGFR2 kinase assays were similarly performed. FGFR1 (76 ng/well, Panvera/Invitrogen) was combined with 12.5 mg/ml poly(glu4tyr) (Sigma) and 2.5 uM ATP. VEGFR2 (14.1 U/well, Cell Signaling/ProQinase) was used with 0.3 mg/ml poly(glu4tyr) and 1.5 uM ATP. Both were incubated for 60 minutes at 37 C, and the residual ATP was measured via luminescence, per the procedure described above.

A further assay has as its target T3, EphB4 (Homo sapiens, UniProt P54760).
T3 construct: purchased Upstate
T3 sequence (P54760 16-987): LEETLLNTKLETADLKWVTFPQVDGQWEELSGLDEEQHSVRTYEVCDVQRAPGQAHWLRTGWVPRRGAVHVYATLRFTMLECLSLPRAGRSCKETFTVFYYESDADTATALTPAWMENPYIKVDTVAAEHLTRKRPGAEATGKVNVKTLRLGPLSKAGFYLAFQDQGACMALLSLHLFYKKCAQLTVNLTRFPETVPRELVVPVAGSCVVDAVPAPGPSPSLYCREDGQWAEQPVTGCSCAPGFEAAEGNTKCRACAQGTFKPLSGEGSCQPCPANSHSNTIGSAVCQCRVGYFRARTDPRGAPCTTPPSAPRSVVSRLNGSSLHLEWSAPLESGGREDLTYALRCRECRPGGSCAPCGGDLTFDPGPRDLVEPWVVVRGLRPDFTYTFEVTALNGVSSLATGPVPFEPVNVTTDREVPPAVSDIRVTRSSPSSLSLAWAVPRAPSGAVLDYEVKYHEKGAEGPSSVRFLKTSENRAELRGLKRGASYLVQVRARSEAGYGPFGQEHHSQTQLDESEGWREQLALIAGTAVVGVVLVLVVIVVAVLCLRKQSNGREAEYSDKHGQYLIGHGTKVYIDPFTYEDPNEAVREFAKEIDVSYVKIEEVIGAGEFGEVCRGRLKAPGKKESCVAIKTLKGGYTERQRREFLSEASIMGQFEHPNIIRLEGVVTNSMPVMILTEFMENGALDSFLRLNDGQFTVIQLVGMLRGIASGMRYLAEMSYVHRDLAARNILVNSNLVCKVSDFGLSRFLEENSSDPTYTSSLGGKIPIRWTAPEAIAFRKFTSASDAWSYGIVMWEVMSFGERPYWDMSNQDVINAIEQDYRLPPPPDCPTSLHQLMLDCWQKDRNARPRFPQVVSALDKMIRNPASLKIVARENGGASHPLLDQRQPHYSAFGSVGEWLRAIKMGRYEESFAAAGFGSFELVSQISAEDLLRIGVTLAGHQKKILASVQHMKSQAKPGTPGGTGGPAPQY
The assay can be described thus: EphB4 kinase assay, residual ATP luminescence. Conditions: poly(glu4tyr), 6 uM ATP, 60 minutes at 37 C. On the procedure:
as §1
EphB4 kinase activity was similarly measured, using the luciferase-based technique described above. 28.9 mU/well EphB4 (Upstate) was reacted with 1 mg/ml poly(glu4tyr), 6 uM ATP and test reagents. The reaction was incubated for 60 minutes at 37 C and the residual ATP concentration was measured.

A further assay has as its target T4, PDGFRb (Homo sapiens, UniProt P09619).
T4 construct: purchased Panvera/Invitrogen
Nature of the assay: PDGFRb kinase assay, residual ATP luminescence. The conditions noted are these: PTK2 peptide, 500 nM ATP, 60 minutes at 37 C; read-out: Pdgfrβ IC50. As to the method: as §1
PDGFRb (0.16 ug/well, Panvera/Invitrogen) 500 nM ATP and the PTK2 peptide (700 uM) were combined with compound and reaction buffer as noted above for src. The reaction was incubated for 60 minutes at 37 C, and the residual ATP concentration was determined using the luciferase-based technique also noted above.

In a further assay the target is T5, FGFR1 (Homo sapiens, UniProt P11362).
T5 construct: purchased Panvera/Invitrogen
The assay can be described thus: FGFR1 kinase assay, residual ATP luminescence. Conditions: poly(glu4tyr), 2.5 uM ATP, 60 minutes at 37 C. As to the method: as §1, §2

T5 sequence (P11362 22-822, species assumed): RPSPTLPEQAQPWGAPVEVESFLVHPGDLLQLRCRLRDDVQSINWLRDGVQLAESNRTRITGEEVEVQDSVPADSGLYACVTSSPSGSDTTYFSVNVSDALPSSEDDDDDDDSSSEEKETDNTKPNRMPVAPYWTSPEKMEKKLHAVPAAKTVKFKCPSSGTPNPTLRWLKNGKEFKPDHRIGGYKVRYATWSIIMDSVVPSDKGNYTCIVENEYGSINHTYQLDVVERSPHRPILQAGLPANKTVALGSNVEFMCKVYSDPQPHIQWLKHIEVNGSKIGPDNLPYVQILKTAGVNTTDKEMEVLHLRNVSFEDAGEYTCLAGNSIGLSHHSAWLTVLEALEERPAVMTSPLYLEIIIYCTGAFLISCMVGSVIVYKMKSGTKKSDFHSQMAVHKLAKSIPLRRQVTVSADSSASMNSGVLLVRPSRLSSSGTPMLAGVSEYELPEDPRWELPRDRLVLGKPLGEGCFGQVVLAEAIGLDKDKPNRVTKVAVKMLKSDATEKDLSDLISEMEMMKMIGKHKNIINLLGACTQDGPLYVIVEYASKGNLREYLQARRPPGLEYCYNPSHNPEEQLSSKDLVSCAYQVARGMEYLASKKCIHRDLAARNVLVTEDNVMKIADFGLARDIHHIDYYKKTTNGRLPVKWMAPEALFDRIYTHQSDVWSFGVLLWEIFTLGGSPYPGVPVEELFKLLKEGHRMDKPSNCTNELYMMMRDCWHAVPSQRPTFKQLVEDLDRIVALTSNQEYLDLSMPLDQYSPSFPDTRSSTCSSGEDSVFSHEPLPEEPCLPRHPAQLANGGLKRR
T1 sequence (P07947 whole entry): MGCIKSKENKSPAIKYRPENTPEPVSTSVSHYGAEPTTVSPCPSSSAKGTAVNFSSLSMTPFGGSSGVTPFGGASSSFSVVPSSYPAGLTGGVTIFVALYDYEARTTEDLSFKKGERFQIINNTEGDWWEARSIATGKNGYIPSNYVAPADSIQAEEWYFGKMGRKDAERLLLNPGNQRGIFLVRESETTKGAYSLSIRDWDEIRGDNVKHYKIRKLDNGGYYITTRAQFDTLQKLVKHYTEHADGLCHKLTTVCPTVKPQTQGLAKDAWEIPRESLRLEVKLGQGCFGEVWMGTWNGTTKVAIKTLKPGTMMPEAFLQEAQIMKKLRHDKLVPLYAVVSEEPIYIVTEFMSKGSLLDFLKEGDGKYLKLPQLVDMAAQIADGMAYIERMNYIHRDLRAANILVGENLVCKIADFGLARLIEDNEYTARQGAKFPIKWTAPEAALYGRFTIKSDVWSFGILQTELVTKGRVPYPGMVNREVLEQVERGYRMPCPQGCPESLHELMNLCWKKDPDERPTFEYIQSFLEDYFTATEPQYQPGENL
T2 sequence (P35968 20-1356, species assumed): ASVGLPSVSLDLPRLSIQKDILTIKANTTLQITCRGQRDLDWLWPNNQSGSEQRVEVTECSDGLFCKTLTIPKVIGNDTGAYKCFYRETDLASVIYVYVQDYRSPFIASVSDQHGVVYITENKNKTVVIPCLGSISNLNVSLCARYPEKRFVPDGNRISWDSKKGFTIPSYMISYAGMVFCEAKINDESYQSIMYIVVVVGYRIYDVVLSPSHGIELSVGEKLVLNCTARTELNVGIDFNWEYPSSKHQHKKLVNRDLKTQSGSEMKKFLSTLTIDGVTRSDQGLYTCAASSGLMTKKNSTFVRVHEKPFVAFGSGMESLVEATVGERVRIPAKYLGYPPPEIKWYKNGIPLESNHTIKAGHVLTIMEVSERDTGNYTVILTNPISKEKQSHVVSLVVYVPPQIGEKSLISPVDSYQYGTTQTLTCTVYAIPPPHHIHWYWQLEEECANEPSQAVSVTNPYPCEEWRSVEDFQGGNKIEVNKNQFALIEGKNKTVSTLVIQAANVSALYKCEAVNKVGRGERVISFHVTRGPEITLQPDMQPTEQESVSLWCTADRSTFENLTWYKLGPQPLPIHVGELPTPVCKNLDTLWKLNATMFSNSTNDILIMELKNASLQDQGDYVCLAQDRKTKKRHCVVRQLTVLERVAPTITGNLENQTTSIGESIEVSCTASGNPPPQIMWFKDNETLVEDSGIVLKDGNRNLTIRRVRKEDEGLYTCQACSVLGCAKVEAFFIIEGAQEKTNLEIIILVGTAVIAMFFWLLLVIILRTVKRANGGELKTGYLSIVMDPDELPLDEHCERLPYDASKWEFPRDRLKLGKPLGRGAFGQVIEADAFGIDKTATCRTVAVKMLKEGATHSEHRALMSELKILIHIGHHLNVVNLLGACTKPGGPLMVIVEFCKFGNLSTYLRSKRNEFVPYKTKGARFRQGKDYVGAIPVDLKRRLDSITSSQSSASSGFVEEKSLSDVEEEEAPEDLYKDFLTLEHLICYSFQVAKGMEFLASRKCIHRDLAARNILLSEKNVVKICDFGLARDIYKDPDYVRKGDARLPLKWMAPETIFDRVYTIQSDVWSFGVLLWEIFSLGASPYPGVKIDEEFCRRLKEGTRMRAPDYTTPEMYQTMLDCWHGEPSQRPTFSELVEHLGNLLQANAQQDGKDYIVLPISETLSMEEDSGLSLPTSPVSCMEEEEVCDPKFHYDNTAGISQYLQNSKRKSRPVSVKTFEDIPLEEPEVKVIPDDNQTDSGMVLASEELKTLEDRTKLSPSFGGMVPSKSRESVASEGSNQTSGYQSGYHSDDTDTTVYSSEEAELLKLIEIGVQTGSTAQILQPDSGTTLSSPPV
T4 sequence (P09619 33-1106, species assumed): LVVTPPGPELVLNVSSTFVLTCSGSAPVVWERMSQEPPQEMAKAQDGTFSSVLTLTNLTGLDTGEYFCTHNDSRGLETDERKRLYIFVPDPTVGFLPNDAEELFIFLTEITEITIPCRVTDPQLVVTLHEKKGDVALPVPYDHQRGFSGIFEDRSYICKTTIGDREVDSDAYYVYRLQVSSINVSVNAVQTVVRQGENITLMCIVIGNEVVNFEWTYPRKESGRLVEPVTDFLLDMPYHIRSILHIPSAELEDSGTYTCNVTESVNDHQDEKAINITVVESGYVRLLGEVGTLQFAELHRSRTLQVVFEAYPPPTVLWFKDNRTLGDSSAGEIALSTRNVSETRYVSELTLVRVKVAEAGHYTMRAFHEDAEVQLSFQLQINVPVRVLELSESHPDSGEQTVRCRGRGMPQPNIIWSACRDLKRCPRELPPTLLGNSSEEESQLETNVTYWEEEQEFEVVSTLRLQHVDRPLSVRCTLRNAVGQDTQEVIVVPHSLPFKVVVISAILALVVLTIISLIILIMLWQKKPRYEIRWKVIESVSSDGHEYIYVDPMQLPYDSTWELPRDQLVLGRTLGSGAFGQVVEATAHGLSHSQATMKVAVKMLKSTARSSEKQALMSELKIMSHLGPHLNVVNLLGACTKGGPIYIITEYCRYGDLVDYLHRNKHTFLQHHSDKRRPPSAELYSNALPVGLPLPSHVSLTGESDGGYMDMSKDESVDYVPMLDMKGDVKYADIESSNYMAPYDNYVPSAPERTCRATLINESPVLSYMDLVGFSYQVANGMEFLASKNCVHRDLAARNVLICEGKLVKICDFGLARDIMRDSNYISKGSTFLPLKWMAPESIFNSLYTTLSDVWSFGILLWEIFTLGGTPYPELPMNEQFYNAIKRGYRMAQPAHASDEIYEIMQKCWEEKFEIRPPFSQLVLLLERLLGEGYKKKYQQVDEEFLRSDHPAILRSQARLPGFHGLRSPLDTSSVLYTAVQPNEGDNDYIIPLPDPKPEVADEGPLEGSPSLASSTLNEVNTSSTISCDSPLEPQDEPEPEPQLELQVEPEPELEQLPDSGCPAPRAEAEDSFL

The IC50 is the concentration needed to halve the response being measured. `O=C(NCCN1CCCC1)c1ccc(Nc2ncc(NC(=O)c3cc(O)ccc3Cl)cn2)cn1` [drawing 204]: the concentration for half-maximal inhibition (IC50) at human Yes is 0.0031 µM; at VEGFR2 it was 0.87 µM; at EphB4, 0.089 µM; on PDGFRb it was 0.013 µM; against FGFR1, 1 µM.
`O=C(NCCN1CCCC1)c1ccc(Nc2ncc(NC(=O)c3cc(O)ccc3Cl)cn2)cc1` [drawing 208]: the IC50 on human Yes came out at 0.0044 µM; at VEGFR2, 0.257 µM; at EphB4 it was 0.059 µM; at PDGFRb it was 0.0063 µM; against FGFR1, 8.2 µM.
With `CC(C)N(CCO)C(=O)c1ccc(Nc2ncc(NC(=O)c3cc(O)ccc3Cl)cn2)cc1` [drawing 210], the half-maximal inhibitory concentration (IC50) at human Yes was 0.006 µM; on VEGFR2, above 10 µM; against EphB4 it was 0.19 µM; at PDGFRb, 0.138 µM; on FGFR1 it was above 10 µM.
